Test results reported in PubChem BioAssay (NCI).
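Briefly, cells in 96-well plates were exposed to five compound concentrations for 48 h, and endpoints were estimated by linear interpolation. Abbreviation: GI50, concentration required for 50% inhibition of growth. The concentration for full growth arrest is given as TGI.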

Legend:
Assay in all cases: DTP human tumour cell line panel, 48 h
[1] = system: SK-MEL-2 melanoma
[2] = system: KM12 colon
[3] = system: SR leukemia
[4] = system: ACHN renal
[5] = system: RPMI-8226 leukemia
[6] = system: TK-10 renal
[7] = system: T-47D breast
[8] = system: UO-31 renal
[9] = system: BT-549 breast
[10] = system: A549 NSCLC
[11] = system: A498 renal
[12] = system: RXF 393 renal
[13] = system: OVCAR-3 ovarian
[14] = system: UACC-257 melanoma
[15] = system: HCC-2998 colon
[16] = system: DU-145 prostate
[17] = system: 786-0 renal
[18] = system: COLO 205 colon
[19] = system: SW-620 colon
[20] = system: HOP-62 NSCLC
[21] = system: HL-60(TB) leukemia
[22] = system: NCI-H23 lung
[23] = system: SK-MEL-28 melanoma
[24] = system: SN12C renal
[25] = system: M14 melanoma
[26] = system: NCI-H522 lung
[27] = system: OVCAR-4 ovarian
[28] = system: SF-539 CNS
[29] = system: MCF7 breast
[30] = system: SK-MEL-5 melanoma
[31] = system: OVCAR-8 ovarian
[32] = system: SF-268 CNS
[33] = system: SF-295 CNS
[34] = system: MOLT-4 leukemia
[35] = system: MDA-MB-435
[36] = system: NCI-H460 lung
[37] = system: HS 578T breast
[38] = system: OVCAR-5 ovarian
[39] = system: NCI-H226 lung
[40] = system: IGROV1 ovarian
[41] = system: PC-3 prostate
[42] = system: HOP-92 NSCLC
[43] = system: CCRF-CEM leukemia
[44] = system: EKVX NSCLC
[45] = system: SNB-19 CNS
[46] = system: SNB-75 CNS
[47] = system: UACC-62 melanoma
[48] = system: NCI/ADR-RES ovarian
[49] = system: HCT-116 colon
[50] = system: CAKI-1 renal
[51] = system: MDA-MB-231 breast
[52] = system: LOX IMVI melanoma
[53] = system: K-562 leukemia

## CCOC(=O)/C=C/C1=C(c2csc3ccccc23)c2ccccc2CC1
[1]
  GI50: > 100 µM
  TGI: > 100 µM
[2]
  GI50: 12.7 µM
  TGI: 56.4 µM
[3]
  GI50: 15.4 µM
  TGI: 48.8 µM
[4]
  GI50: 30.2 µM
  TGI: > 100 µM
[5]
  GI50: 22.6 µM
  TGI: > 100 µM
[6]
  GI50: 16.6 µM
  TGI: 61.7 µM
[7]
  GI50: 12.3 µM
  TGI: 55.5 µM
[8]
  GI50: 58.1 µM
  TGI: > 100 µM
[9]
  GI50: 99.3 µM
  TGI: > 100 µM
[10]
  GI50: 31.1 µM
  TGI: > 100 µM
[11]
  GI50: 55.4 µM
  TGI: > 100 µM
[12]
  GI50: 33.7 µM
  TGI: > 100 µM
[13]
  GI50: 27.4 µM
  TGI: > 100 µM
[14]
  GI50: 23.4 µM
  TGI: 82.6 µM
[15]
  GI50: 55.5 µM
  TGI: > 100 µM
[16]
  GI50: 54.9 µM
  TGI: > 100 µM
[17]
  GI50: 57 µM
  TGI: > 100 µM
[18]
  GI50: 18.8 µM
  TGI: 53.9 µM
[19]
  GI50: 31.8 µM
  TGI: > 100 µM
[20]
  GI50: 41.6 µM
  TGI: > 100 µM
[21]
  GI50: 32.4 µM
  TGI: > 100 µM
[22]
  GI50: > 100 µM
  TGI: > 100 µM
[23]
  GI50: 32 µM
  TGI: > 100 µM
[24]
  GI50: 73.7 µM
  TGI: > 100 µM
[25]
  GI50: 29.7 µM
  TGI: > 100 µM
[26]
  GI50: 27.6 µM
  TGI: > 100 µM
[27]
  GI50: 11.6 µM
  TGI: 48.8 µM
[28]
  GI50: > 100 µM
  TGI: > 100 µM
[29]
  GI50: 66.3 µM
  TGI: > 100 µM
[30]
  GI50: 28.5 µM
  TGI: > 100 µM
[31]
  GI50: 79 µM
  TGI: > 100 µM
[32]
  GI50: 28.2 µM
  TGI: 90 µM
[33]
  GI50: 18.4 µM
  TGI: 88.4 µM
[34]
  GI50: 32.2 µM
  TGI: > 100 µM
[35]
  GI50: 4.34 µM
  TGI: 25.7 µM
[36]
  GI50: 37.5 µM
  TGI: > 100 µM
[37]
  GI50: 52.7 µM
  TGI: > 100 µM
[38]
  GI50: > 100 µM
  TGI: > 100 µM
[39]
  GI50: > 100 µM
  TGI: > 100 µM
[40]
  GI50: 25.5 µM
  TGI: > 100 µM
[41]
  GI50: 19.8 µM
  TGI: > 100 µM
[42]
  GI50: 48.6 µM
  TGI: > 100 µM
[43]
  GI50: 27.9 µM
  TGI: > 100 µM
[44]
  GI50: 54.2 µM
  TGI: > 100 µM
[45]
  GI50: 21.3 µM
  TGI: 80.9 µM
[46]
  GI50: 15.2 µM
  TGI: 74.4 µM
[47]
  GI50: 23.6 µM
  TGI: > 100 µM
[48]
  GI50: 38.7 µM
  TGI: > 100 µM
[49]
  GI50: 24.6 µM
  TGI: 70.9 µM
[50]
  GI50: 14.8 µM
  TGI: 57.9 µM
[51]
  GI50: 34.9 µM
  TGI: > 100 µM
[52]
  GI50: 30.6 µM
  TGI: > 100 µM
[53]
  GI50: 23.2 µM
  TGI: > 100 µM
